# Read-outs that look alike come from different tables or passages of the source.
# What was measured:
# [1] = system: CHO cell cultures; assay type: cell-based, Chinese hamster
# Method: (§1) MATERIALS AND METHODS Cells.-Cultures of the established pseudo- diploid BHK21 Syrian hamster fibroblast line, and of the established pseudodiploid CHO Chinese hamster ovary fibroblast line were grown at 37?C as monolayers, in Eagle's minimal essential medium supplemented with 10% calf serum. Cultures in glass Petri dishes were maintained in a humidified 5% C02 atmosphere. […] Cell growth was estimated on the basis of the nucleic-acid content (RNA+ DNA) of each culture, deter- mined 5 days after seeding, when controls became confluent. To this purpose nucleotides and nucleic acids were sequentially extracted by differential hydrolyses with perchloric acid (PCA): soluble nucleotides of the intracellular pool were extracted with 5% PCA at 4?C for 30 min, RNA was hydrolysed with 10%/ PCA at 37?C for 1 h, and DNA was hydrolysed with 10% PCA at 70?C for 2 h. Soluble nucleotides and RNA were measured by UV absorption at 260 nm, DNA was measured at 268 nm, with a Hitachi 200-20 double-beam spectrophotometer. In order to label nucleic acids, the cultures were incu- bated with tritiated nucleosides (Radio- chemical Centre, Amersham, England): thy- midine-6-H3 ([3H]-TdR; 2 Ci/mM) and uridine-5-H3 ([3H]-UR; 2-5 Ci/mM) were used at the concentration of 2 µCi/ml. After labelling, nucleotides and nucleic acids were extracted and determined as above, and the radioactivity of liquid samples (0-5 ml) of the different fractions was counted in a Packard Tri-Carb 2425 scintillation counter, using 10 ml of Bray's solution. As stated else- where (Levis et al., 1978a, b) the extraction procedure with PCA allows both quantitative determinations and radioactivity counting of different fractions (soluble nucleotides, RNA and DNA) obtained from the same culture. […] The medium was not changed until the 8th day, when the plates were stained with acetic gentian violet, and scored for survivors. All colonies visible to the naked eye were counted as survivors. Chromosome preparations.-Suspensions of CHO cells were prepared by trypsinization of log-phase cultures and diluted with growth medium in 100mm Petri plates. Each plate received about 8 x 10^5 cells in 10 ml of medium, which was changed 24 h after seeding. At this time 3 x 10^-5 M bromodeoxyuridine (BUdR, Sigma, St Louis, Mo., U.S.A.) was added and the cells were allowed to incor- porate the analogue for two division cycles (30 h). […] The medium was not changed until the cells were collected 30 h later. During the last 4 h of treatment, 0 4 Hg/ml of colchicine (Merck, Darmstadt, Germany) were added. At the end of treatment, metaphase cells were dislodged by gently pipetting the overlaying medium and collected by centrifuging the suspension at 900 rev/min for 5 min. The cell pellet was suspended in 5 ml hypotonic buffer (10% sodium citrate) at 37?C for 10 min and fixed in ethanol/acetic acid (3/1). Fixed cells were heated at 89?C for 10 min in IM NaH2PO4 (pH 8) and stained with Giemsa (Korenberg & Freedlender, 1974). […] Chromium compounds and cell treatments.- Hexavalent chromium (Cr6+) was tested as K2Cr207 (potassium dichromate), K2CrO4 (potassium chromate) and Na2CrO4.4H20 (sodium chromate) (Mallinckrodt, St Louis, Mo., U.S.A.), as Na2Cr2O7.2H20 (sodium dichromate) (Riedel De Haen, Hannover, Germany), as CrO3 (chromic acid) (Merck, Darmstadt, Germany), and as CaCrO4 (cal- cium chromate) (BDH, Poole, England).
# [2] = system: CHO cells; test: CHO cell survival (macroscopic colonies); assay type: cell-based, Chinese hamster; conditions: seeded in presence of Cr, treated up to 8th day
# Method: MATERIALS AND METHODS Cells.-Cultures of the established pseudo- diploid BHK21 Syrian hamster fibroblast line, and of the established pseudodiploid CHO Chinese hamster ovary fibroblast line were grown at 37?C as monolayers, in Eagle's minimal essential medium supplemented with 10% calf serum. Cultures in glass Petri dishes were maintained in a humidified 5% C02 atmosphere. […] Cell growth was estimated on the basis of the nucleic-acid content (RNA+ DNA) of each culture, deter- mined 5 days after seeding, when controls became confluent. […] Soluble nucleotides and RNA were measured by UV absorption at 260 nm, DNA was measured at 268 nm, with a Hitachi 200-20 double-beam spectrophotometer. […] After labelling, nucleotides and nucleic acids were extracted and determined as above, and the radioactivity of liquid samples (0-5 ml) of the different fractions was counted in a Packard Tri-Carb 2425 scintillation counter, using 10 ml of Bray's solution. As stated else- where (Levis et al., 1978a, b) the extraction procedure with PCA allows both quantitative determinations and radioactivity counting of different fractions (soluble nucleotides, RNA and DNA) obtained from the same culture. […] The medium was not changed until the 8th day, when the plates were stained with acetic gentian violet, and scored for survivors. All colonies visible to the naked eye were counted as survivors. […]
# [3] = system: BHK cells; conditions: chronic exposure
# Method: as §1
# [4] = system: CHO cell cultures
# Method: as §1
# [5] = system: CHO cells; conditions: 30 h, 1.0 ug/ml Cr6+
# Method: as §1
compound,measurement,setting,value
"[Ca+2].[O]=[Cr](=[O])([O-])[O-] [CaCrO4, calcium chromate]",Cell growth (%),[1],1%
same,RNA/DNA,[1],4.8
"CC(=O)[O-].CC(=O)[O-].CC(=O)[O-].[Cr+3] [Cr(COOCH3)3, chromium acetate]",50% lethal dose (LD50),[2],150 µg/mL
same,Cell growth (%),"[1]; 5 days in presence of compound, [Cr] 312.0 ug/ml",1%
same,cytotoxic action on cell growth,[3],weakly cytotoxic
"[Cl][Cr]([Cl])[Cl] [CrCl3, chromium chloride]",Cell growth (%),"[1]; 5 days in presence of compound, [Cr] 262.0 ug/ml",61%
same,cytotoxic action on cell growth,[3]; even at 300 tg/ml Cr3+ (maximum solubility in complete growth medium),little or no cytotoxic action
"O=S(=O)([O-])[O-].O=S(=O)([O-])[O-].[Cr+3].[K+] [CrK(SO4)2, chromium potassium sulphate]",Cell growth (%),"[1]; 5 days in presence of compound, [Cr] 209.0 ug/ml",62%
same,RNA/DNA,"[1]; 5 days, [Cr] 209.0 ug/ml",1-4
same,cytotoxic action on cell growth,[3],weakly cytotoxic
"[O]=[Cr](=[O])=[O] [CrO3, chromic acid]",Cell growth (%),[1],2%
"[K+].[K+].[O]=[Cr](=[O])([O-])[O][Cr](=[O])(=[O])[O-] [K2Cr2O7, potassium dichromate]",Cell growth (%),[1],4%
"[K+].[K+].[O]=[Cr](=[O])([O-])[O-] [K2CrO4, potassium chromate]",Cell growth (%),[1],5%
same,Sister chromatid exchanges per chromosome,[4],0.50 + 0-01
same,Sister chromatid exchanges per metaphase,[4],9-80 + 0-31
"[Na+].[Na+].[O]=[Cr](=[O])([O-])[O][Cr](=[O])(=[O])[O-] [Na2Cr2O7, sodium dichromate]",Cell growth (%),[1],3%
same,RNA/DNA,[1],6-9
same,increase of chromosome aberrations,[5],about 10 fold
"[Na+].[Na+].[O]=[Cr](=[O])([O-])[O-] [Na2CrO4, sodium chromate]",Cell growth (%),[1],6%
same,Sister chromatid exchanges per chromosome,[4],059 + 0-20
same,Sister chromatid exchanges per metaphase,[4],10-62 + 0-33
